Reference: ChEMBL document CHEMBL1201862, “PubChem BioAssay data set” (2004)
Where “and” joins values, the source holds several entries; their conditions need not be identical. Equal values may be shown once.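 Each compound was tested at five concentrations against cells in 96-well plates for 48 hours. GI50: concentration for 50% inhibition of growth.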 Calls of active or inactive are those of the source. Cut-off read from the data, not from the text of the source: active = GI50 up to about 1.1 µM and inactive = higher.

Assays:
Assay in all cases: NCI-60 cell line screen, 48 h
786-0 = system: 786-0
A498 = system: A498
A549 = system: A549
ACHN = system: ACHN
CAKI-1 = system: CAKI-1
CCRF-CEM = system: CCRF-CEM
COLO 205 = system: COLO 205
DLD-1 = system: DLD-1
DMS-114 = system: DMS-114
DMS-273 = system: DMS-273
EKVX = system: EKVX
HCC 2998 = system: HCC 2998
HCT-116 = system: HCT-116
HCT-15 = system: HCT-15
HL-60 = system: HL-60
HOP-62 = system: HOP-62
HOP-92 = system: HOP-92
HT-29 = system: HT-29
IGROV-1 = system: IGROV-1
K562 = system: K562
KM-20L2 = system: KM-20L2
LOX IMVI = system: LOX IMVI
LXFL 529 = system: LXFL 529
M14 = system: M14
M19-MEL = system: M19-MEL
MOLT-4 = system: MOLT-4
Malme-3M = system: Malme-3M
NCI-H226 = system: NCI-H226
NCI-H23 = system: NCI-H23
NCI-H460 = system: NCI-H460
OVCAR-3 = system: OVCAR-3
OVCAR-4 = system: OVCAR-4
OVCAR-5 = system: OVCAR-5
OVCAR-8 = system: OVCAR-8
RPMI-8226 = system: RPMI-8226
RXF 631 = system: RXF 631
SF-268 = system: SF-268
SF-295 = system: SF-295
SF-539 = system: SF-539
SK-MEL-28 = system: SK-MEL-28
SK-MEL-2 = system: SK-MEL-2
SK-MEL-5 = system: SK-MEL-5
SK-OV-3 = system: SK-OV-3
SNB-19 = system: SNB-19
SNB-75 = system: SNB-75
SW-620 = system: SW-620
TK-10 = system: TK-10
U-251 = system: U-251
UACC-257 = system: UACC-257
UACC-62 = system: UACC-62
UO-31 = system: UO-31
XF498 = system: XF498
HOP-18 = system: HOP-18
NCI-H522 = system: NCI-H522
SN12C = system: SN12C
SNB-78 = system: SNB-78
KM12 = system: KM12
RXF 393 = system: RXF 393

Measured: GI50

COC(=O)N1C=Cc2c(c(C)c3c([nH]c4ccccc43)c2C)C1C (stereo unspecified)
10.6 µM: HCT-15
inactive: 786-0 13.2 µM | A498 14.1 µM | A549 18 µM | ACHN > 10 µM | CAKI-1 18.1 µM | CCRF-CEM 14.8 µM | COLO 205 18.7 µM | DLD-1 14.8 µM | DMS-114 19.4 µM | DMS-273 18 µM | EKVX 14 µM | HCC 2998 16.8 µM | HCT-116 12.9 µM | HL-60 19.2 µM | HOP-62 18.2 µM | HOP-92 20.1 µM | HT-29 11.3 µM | IGROV-1 25.2 µM | K562 6.19 µM | KM-20L2 12.2 µM | LOX IMVI 16.4 µM | LXFL 529 22.2 µM | M14 29.6 µM | M19-MEL 20.8 µM | MOLT-4 5.97 µM | Malme-3M 18.1 µM | NCI-H226 17.6 µM | NCI-H23 17.7 µM | NCI-H460 22.5 µM | OVCAR-3 16.3 µM | OVCAR-4 12.3 µM | OVCAR-5 17.2 µM | OVCAR-8 18.3 µM | RPMI-8226 7.62 µM | RXF 631 16.4 µM | SF-268 18.2 µM | SF-295 13.7 µM | SF-539 17.1 µM | SK-MEL-28 15.5 µM | SK-MEL-2 18.3 µM | SK-MEL-5 15.3 µM | SK-OV-3 27.4 µM | SNB-19 18 µM | SNB-75 15.3 µM | SW-620 17.7 µM | TK-10 19.6 µM | U-251 16 µM | UACC-257 17.3 µM | UACC-62 18 µM | UO-31 18.5 µM | XF498 17.7 µM

c1ccc2c(c1)nc1n2CSC1
> 100 µM: HCT-15
inactive: A498 > 100 µM | ACHN > 100 µM | CAKI-1 > 100 µM | CCRF-CEM > 100 µM | COLO 205 > 100 µM | DLD-1 > 100 µM | DMS-114 > 100 µM | DMS-273 > 100 µM | EKVX > 100 µM | HL-60 > 100 µM | HOP-18 > 100 µM | HOP-92 24 µM | HT-29 > 100 µM | IGROV-1 > 100 µM | K562 > 100 µM | KM-20L2 > 100 µM | LOX IMVI > 100 µM | LXFL 529 > 100 µM | M14 > 100 µM | M19-MEL > 100 µM | MOLT-4 > 100 µM | Malme-3M > 100 µM | NCI-H226 > 100 µM | NCI-H23 > 100 µM | NCI-H460 > 100 µM | NCI-H522 > 100 µM | OVCAR-3 > 100 µM | OVCAR-8 > 100 µM | RPMI-8226 > 100 µM | RXF 631 > 100 µM | SF-268 > 100 µM | SF-295 > 100 µM | SF-539 > 100 µM | SK-MEL-28 > 100 µM | SK-MEL-2 > 100 µM | SK-MEL-5 > 100 µM | SK-OV-3 > 100 µM | SN12C > 100 µM | SNB-19 > 100 µM | SNB-75 > 100 µM | SNB-78 > 100 µM | SW-620 > 100 µM | TK-10 > 100 µM | U-251 > 100 µM | UACC-62 > 100 µM | UO-31 > 100 µM | XF498 > 100 µM

C/C=C(/CCC1NCCc2c1[nH]c1ccccc21)[Si](C)(C)C (stereo unspecified)
6.27 µM: HCT-15
inactive: A498 19.2 µM and 11.3 µM | A549 14.2 µM | COLO 205 1.94 µM | DLD-1 8.3 µM | EKVX 7.85 µM | HOP-18 11.9 µM | HOP-62 13.5 µM | K562 29.2 µM and 2.49 µM | LOX IMVI 4.42 µM | LXFL 529 1.85 µM | MOLT-4 37.2 µM and 2.37 µM | Malme-3M 33.3 µM and 1.78 µM | NCI-H226 13.8 µM | OVCAR-4 81.7 µM and 4.11 µM | OVCAR-8 8.97 µM | RXF 631 58.5 µM and 6.87 µM | SF-268 10.9 µM | SK-OV-3 13.4 µM | SN12C 5.61 µM | SNB-75 95.3 µM and 6.17 µM | SNB-78 11.6 µM | UACC-62 78.9 µM and 12.8 µM | XF498 74.3 µM and 1.73 µM

CC12CCC(C)(c3cc(O)c(O)cc31)c1cc(O)c(O)cc12
13.7 µM: HCT-15
inactive: 786-0 14.7 µM | A549 29.6 µM | ACHN 16.1 µM | CAKI-1 11.2 µM | CCRF-CEM 2.92 µM | COLO 205 16.5 µM | DLD-1 17.5 µM | DMS-114 14.8 µM | DMS-273 17.3 µM | EKVX 25.1 µM | HCC 2998 17.5 µM | HL-60 3.38 µM | HOP-62 26.7 µM | HOP-92 10.7 µM | HT-29 14.7 µM | IGROV-1 20.3 µM | K562 7.06 µM | KM-20L2 19 µM | KM12 17.1 µM | LOX IMVI 16.4 µM | LXFL 529 8.47 µM | M14 17.2 µM | M19-MEL 13.7 µM | MOLT-4 15.1 µM | Malme-3M 18.3 µM | NCI-H23 27 µM | NCI-H460 18 µM | NCI-H522 2.29 µM | OVCAR-3 17.8 µM | OVCAR-4 14.6 µM | OVCAR-5 22.3 µM | OVCAR-8 19.7 µM | RPMI-8226 8.51 µM | RXF 393 16.1 µM | RXF 631 20.2 µM | SF-268 18.2 µM | SF-295 22 µM | SK-MEL-28 16.4 µM | SK-MEL-2 32.6 µM | SK-MEL-5 17.7 µM | SK-OV-3 19.2 µM | SN12C 21.8 µM | SNB-19 15.5 µM | SNB-75 11.6 µM | SNB-78 17.7 µM | SW-620 15.7 µM | TK-10 19.8 µM | UACC-257 15.3 µM | UACC-62 17.3 µM | UO-31 19.8 µM | XF498 17.1 µM
